System: Malassezia furfur (ATCC #38593)
Experiment: M. furfur efficacy assay (anti-fungal activity, Alamar blue, 96 well plates)
Type: cell-based
Method: Malassezia furfur (ATCC #38593) was cultured on Media C agar for 7 d at 37° C. Yeast colonies were then harvested into 0.9% saline sterile diH2O and diluted to approximately 1.5×10^6 CFU/mL using a 0.5 MacFarland standard (Fisher #R20410) to create an assay inoculum. Assay inoculum was added to sterile Media C broth to a final concentration of 4.5×10^4 CFU/mL. Assays were carried out in 96 well plates with a final well volume of 100 μL.
Extract fractions and pure compounds were tested in triplicate against each organism. Extract fractions and pure compounds were resuspended in sterile 20% DMSO.
Each plate contained eight uninoculated positive controls (media+20% DMSO), eight untreated negative controls (Media+20% DMSO+organism), and one column containing a concentration range of a ketoconazole as a control antibiotic. The assay plate was incubated at 37° C. for 5d after which growth within the wells were visualized and photographed with a UVP Biospectrum 500 imaging system. Alamar blue was then added to each well at 10% of the culture volume (11 μL in 100 μL). Fluorescence was monitored using a BioTek Synergy HT plate reader at 530/25 excitation, 590/35 emission and 35 sensitivity at both time zero and 4 hrs after Alamar blue was added. After subtracting the time zero emission 590 nm measurement from the final reading the inferred percentage of microorganism survival relative to vehicle control wells were calculated.
Experimentation was carried out to assess the anti-fungal effect of the produced fumagillin derivative and the pseurotin A each on their own, and in combination against M. furfur in a shampoo type formulation.
Initially the M. furfur efficacy assay was tested with both J&J Baby Shampoo as well as Head & Shoulders to establish a baseline and assess the compatibility of the assay using a shampoo. Compositions of the fumagillin derivative with and without pseurotin A were created and suspended into the baby shampoo. The shampoo mixture was then diluted out into the assay in a similar manner to Head & Shoulders, so that various dilution points in the assay represented multiple sub-inhibitory concentrations of the fumagillin derivative and pseurotin A (concentration combinations are listed in Table 1).

IC50 (active alone, M. furfur, incubated at 37° C. for 5d): 55 µg/mL | MIC (active alone, M. furfur, incubated at 37° C. for 5d, listed as Pseurotin A (sample 1)): 128 µg/mL | MIC (active alone, M. furfur, incubated at 37° C. for 5d, listed as Pseurotin A (sample 2)): 75 µg/mL
SMILES: CC/C=C\[C@H](O)[C@H](O)C1=C(C)C(=O)[C@]2(O1)C(=O)N[C@@](OC)(C(=O)c1ccccc1)[C@@H]2O [Pseurotin A, pseurotin A]
anti-Malassezia activity of isolated pure fractions (fraction 6 and fraction 10 of Peyronellaea sp. RKDO347 extract): demonstrated anti-Malassezia activity

Source: patent US10888548B2, “Anti-dandruff compositions comprising a spirofuranone lactam tetramic acid derivative” (priority 2015, dated 2021)
